# Experimental data: a melting point compilation (Tetko et al.; mined from patent text by program, amines drawn as free bases though some values may be those of a salt)
row,Structure (SMILES),melting point [°C]
1,Cc1cc(C(C)(C)C)c(O)c(C)c1CC(=O)N1CCN(C(=O)Cc2c(C)cc(C(C)(C)C)c(O)c2C)CC1,305 to 310
2,Cc1cccc(C)c1NC(=O)CCNCCNC(C)C,69.5
3,CCOC(=O)C(C)O/N=C(\C(=O)Sc1nc2ccccc2s1)c1csc(N)n1 (stereo unspecified),113
4,CCCCCCCCOC(=O)N(C[C@H](O)[C@@H](O)[C@H](O)[C@H](O)CO)C(C)CC (stereo partly specified),101
5,COC1CC2(C)C(CCC3C4CCC(C(=O)COC(C)=O)C4(C)CC(=O)C32)CC1O (stereo unspecified),177 to 180
6,COc1cc2c(cc1OC)C(c1cccc(C(F)(F)F)c1)=NN=C(C)C2,134 to 135
7,O=C(NCCCl)c1c(Cl)cccc1Cl,114
8,CN(C)Cc1ccccc1C(O)c1ccsc1 (stereo unspecified),77 to 78
9,COc1ccc(-n2nc(C(C)C)cc2-c2ccc(OCCNS(C)(=O)=O)cc2)cn1,96 to 97
10,CCOCc1nc2c(N)nc3cc(-c4ccc(-c5ccc6c(c5)nc(N)c5nc(COCC)n(CC(C)(C)O)c56)cc4)ccc3c2n1CC(C)(C)O,325 to 328
11,CCCN1CC(CN2CC(=O)NC2=O)CC2c3cccc4[nH]cc(c34)CC21 (stereo unspecified),168 to 170
12,CCNC(=O)n1nc(Oc2c(Cl)cc(C(F)(F)F)cc2Cl)cc1C(C)C,74 to 76
13,CC(C)CC(=O)c1cn(C)cc(-c2cccc(C(F)(F)F)c2)c1=O,110 to 112
14,O=C(O)c1cc2ccc(Cl)cc2[nH]c1=O,317 to 318
15,COc1cc(OC)nc(C2(C#N)OC(=O)c3c(Cl)cccc32)n1 (stereo unspecified),159 to 161
16,O=c1c(Cl)c(Cl)cnn1-c1ccc(Cl)cc1F,158
17,CCOC(=O)CCc1ccc(OCCCc2cn(-c3ccc(C(F)(F)F)cn3)nc2OCC)c(O)c1,92 to 93
18,O=C(CCN1CCCC1)Nc1ccc2c(c1)C(=O)c1cc(NC(=O)CCN3CCCC3)ccc1C2=O,233
19,C=CCC1COC(CC)(CC(=O)OC)c2[nH]c3c(CC)cccc3c21 (stereo unspecified),92 to 93
20,O=C(OC1CCCC1)c1ccc([N+](=O)[O-])c(OC2CCCC2)c1,45.5 to 46.5
21,CC(CC(Br)CO)C1CCC2C(O)CCCC12C (stereo unspecified),153 to 154
22,CCCCCCC(=O)CCCCCCCC(COC(C)=O)(COC(C)=O)NC(C)=O,88 to 89

# Now from value to molecule:
row,melting point [°C],Structure (SMILES)
1,226,Fc1ccc(Cn2c(NC3CCN(CCNc4ncc[nH]4)CC3)nc3ccccc32)cc1
2,208 to 210,Cc1cc(C(=O)N2Cc3cccn3Cc3ccccc32)ccc1-c1ccncc1
3,165 to 166,CC(C)(C)c1cc(CCc2ccccc2NC(=O)NCC(C)(C)c2cccc(F)c2)cc(C(C)(C)C)c1O
4,239 to 240,CCc1cc(-c2ccc(Cl)cc2)nc2c(C(=O)Nc3cccc(S(=O)(=O)NC(C)(C)CO)c3)cnn12
5,175 to 176,Cc1cc(C)cc(Nc2ncc(-c3ccccc3)s2)c1
6,174 to 175,CCCCc1cn(-c2cccn2CC)c(=O)n1Cc1ccc(-c2ccccc2-c2nnn[nH]2)nc1
7,219 to 221,Cn1cc(C2=C(c3cn(CCCN=C=S)c4ccccc34)C(=O)NC2=O)c2ccccc21
8,278 to 281,O=C(O)Cc1c(C(=O)c2cccc(F)c2)[nH]c2cc(Cl)ccc12
9,89 to 90,C=C(C)C(=O)OCCCCOC(=O)/C=C/c1ccc(OC(=O)c2ccc(OC)cc2)cc1
10,309 to 311,O=C(O)c1ccc(COCc2csc3nc(C(=O)NCc4cccnc4)[nH]c(=O)c23)cc1
11,203 to 204,CC(C)n1nc(-c2c(-c3ccccc3)nn3ccc(N4CCNCC4)cc23)ccc1=O
12,218 to 220,COc1ccc(C(=O)Nc2ccc(F)cc2)cc1NC(=S)Nc1cccc(C(=O)O)c1
13,151 to 153,COc1ccccc1N1CCN(CCCCOc2ccc(-c3cn4cccnc4n3)cc2)CC1
14,223 to 226,CCNC(=O)N1CCCC(n2nnnc2-c2cc(-c3cc(C(C)C)ccc3OC)c(O)cc2O)C1 (stereo unspecified)
